Experimental data from publication PMC9519552, “Activation of the human insulin receptor by non-insulin-related peptides” (Nature Communications, 2022).
Read-outs that look alike come from different tables or passages of the source. Positions of bridges follow the written chain, without caps; N, C: chain ends. Residues, ends and D or L forms follow the SMILES beside them.

Tests used:
human IR-A (holoIR-A) = biological target: T1, human IR-A (holoIR-A) (Homo sapiens, UniProt P06213); assay: holoIR-A competitive radioligand binding assay (scintillation proximity assay); settings: for Ki: IM172N22(-) mutant peptide set; for reduction in ki for hIR-A on substitution: relative to control peptide IM172N22 devoid of N-terminal phenylacetylation
T1 construct: expressed in transfected cells; host or cells: HEK293 (ATCC #CRL-1573), stably transfected; membrane preparation
T1 sequence (P06213 28-1370 isoform P06213-2 limits assumed): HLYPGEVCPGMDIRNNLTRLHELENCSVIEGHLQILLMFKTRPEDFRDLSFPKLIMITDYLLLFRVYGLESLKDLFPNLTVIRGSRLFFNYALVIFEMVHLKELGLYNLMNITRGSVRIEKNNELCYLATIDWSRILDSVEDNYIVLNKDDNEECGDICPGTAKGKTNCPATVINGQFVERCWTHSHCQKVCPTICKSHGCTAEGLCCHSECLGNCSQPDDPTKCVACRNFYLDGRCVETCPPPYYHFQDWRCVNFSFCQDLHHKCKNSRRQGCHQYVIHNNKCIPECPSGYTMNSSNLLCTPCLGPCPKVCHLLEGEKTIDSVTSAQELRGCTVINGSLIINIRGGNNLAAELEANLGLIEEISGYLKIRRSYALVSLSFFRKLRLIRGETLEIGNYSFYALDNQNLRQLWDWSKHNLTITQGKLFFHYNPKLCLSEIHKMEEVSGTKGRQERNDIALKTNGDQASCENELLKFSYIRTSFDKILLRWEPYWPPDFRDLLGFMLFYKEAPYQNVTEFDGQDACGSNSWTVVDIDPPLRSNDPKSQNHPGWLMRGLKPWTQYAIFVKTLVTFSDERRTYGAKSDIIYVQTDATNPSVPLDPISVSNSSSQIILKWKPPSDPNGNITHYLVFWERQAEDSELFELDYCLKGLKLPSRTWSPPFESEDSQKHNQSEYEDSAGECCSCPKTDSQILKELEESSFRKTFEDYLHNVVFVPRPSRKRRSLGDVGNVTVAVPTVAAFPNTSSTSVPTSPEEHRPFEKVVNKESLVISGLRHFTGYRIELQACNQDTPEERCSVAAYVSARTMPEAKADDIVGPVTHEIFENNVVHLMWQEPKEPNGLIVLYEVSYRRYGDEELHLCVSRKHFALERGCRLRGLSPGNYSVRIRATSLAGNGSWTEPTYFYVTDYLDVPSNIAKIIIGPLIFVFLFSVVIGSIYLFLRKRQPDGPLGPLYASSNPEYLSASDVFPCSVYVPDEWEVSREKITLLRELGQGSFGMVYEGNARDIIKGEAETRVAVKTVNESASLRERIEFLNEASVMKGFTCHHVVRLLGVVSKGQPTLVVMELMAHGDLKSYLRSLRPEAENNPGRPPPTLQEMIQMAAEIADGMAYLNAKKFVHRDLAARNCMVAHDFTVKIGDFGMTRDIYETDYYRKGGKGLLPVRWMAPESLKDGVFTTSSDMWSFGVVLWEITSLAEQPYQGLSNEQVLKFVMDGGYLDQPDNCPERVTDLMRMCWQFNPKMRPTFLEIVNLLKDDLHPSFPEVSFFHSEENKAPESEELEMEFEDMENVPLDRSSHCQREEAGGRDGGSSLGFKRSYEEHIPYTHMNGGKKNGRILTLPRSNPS
T1 sequence (P06213 763-1382 partner limits assumed): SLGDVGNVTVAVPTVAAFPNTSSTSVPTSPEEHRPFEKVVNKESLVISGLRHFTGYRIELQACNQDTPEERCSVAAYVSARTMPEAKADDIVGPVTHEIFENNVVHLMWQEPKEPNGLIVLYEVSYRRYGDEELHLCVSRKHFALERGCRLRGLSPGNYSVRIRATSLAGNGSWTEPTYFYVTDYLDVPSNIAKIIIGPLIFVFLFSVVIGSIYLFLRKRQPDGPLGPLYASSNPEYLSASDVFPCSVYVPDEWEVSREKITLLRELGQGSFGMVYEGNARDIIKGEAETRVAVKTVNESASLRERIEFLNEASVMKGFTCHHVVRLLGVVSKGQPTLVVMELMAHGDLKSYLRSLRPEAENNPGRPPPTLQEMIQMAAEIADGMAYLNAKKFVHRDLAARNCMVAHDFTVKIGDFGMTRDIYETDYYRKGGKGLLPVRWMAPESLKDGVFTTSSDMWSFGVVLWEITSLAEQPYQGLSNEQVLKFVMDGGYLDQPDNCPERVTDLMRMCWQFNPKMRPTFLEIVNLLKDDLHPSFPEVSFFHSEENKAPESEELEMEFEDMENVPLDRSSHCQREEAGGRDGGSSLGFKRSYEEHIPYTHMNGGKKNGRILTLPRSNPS
Protocol: Cellular membranes were prepared from human embryonic kidney (HEK293; ATCC #CRL-1573) cells stably transfected with cDNA corresponding to human IR-A (holoIR-A) plus a C-terminal C9 tag ([…]) inserted within a pcDNA3.1 plasmid (Invitrogen), with positive clones selected with 800 μg mL^−1 neomycin and confirmed by Western Blot. Frozen cell pellets were thawed in ice-cold homogenization/resuspension buffer (50 mM Tris-HCl, pH 7.5) containing one cOmplete® protease inhibitor tablet with EDTA (Roche Diagnostics) per 50 mL buffer. Cells were homogenized with an overhead motor-driven Teflon-glass homogenizer using 15–20 strokes, followed by centrifugation at 1100 × g for 10 min at 4 °C. The supernatant was saved on ice, pellets were homogenized as before, and centrifuged at 1100 × g for 10 min at 4 °C. Both supernatants were combined and subsequently centrifuged at 35,000 × g for 60 min at 4 °C. The pellet was resuspended in buffer (4 to 5 mL g^−1 of starting cell paste) containing protease inhibitors and quick frozen in liquid nitrogen prior to storage at −80 °C. Protein concentration was determined using a BCA kit (Thermo Scientific) with bovine serum albumin (BSA) as standard.
The assays were performed with a scintillation proximity assay (SPA) method using polyvinyltoluene (PVT) wheat germ agglutinin-coupled SPA beads (Perkin Elmer). Assay buffer containing 50 mM Tris-HCl (pH 7.5), 150 mM NaCl, 0.1% w/v fatty-acid free BSA was used for all compound testing and reagent preparation. Ten-point concentration response curves with three-fold serial dilutions of test samples or controls were prepared in the assay buffer. […] Plates were sealed and shaken for 1 min on a plate shaker. Following a 10-h incubation and bead settling period at room temperature, radioactivity was determined using a MicroBeta Trilux scintillation counter (Perkin Elmer) and expressed as counts per minute (CPM). […] Samples were tested in three independent assay runs on three different days.
All test sample concentration responses were normalized to the control response and calculated as a percent of the maximal response after correcting for nonspecific binding as shown below: %Specific Inhibition=100%−[(CPM−MIN)/(MAX−MIN)×100%]
Percent specific binding (y-axis) was plotted vs log concentration of compound (x-axis) using Prism Version 9.3.1 (GraphPad Software). Individual measurements are provided as Source Data.

[1] = biological target: T2, human holoIR-A over-expressed in HEK293 cells (Homo sapiens, UniProt P06213); assay: Inhibition of hIR phosphorylation by peptides, co-incubated with BHI at its EC50 (ELISA); assay type: cell-based; settings: for hIRA Phosph IC50 Run 1 / hIRA Phosph IC50 Run 2 / hIRA Phosph IC50 Run 3: inhibition of insulin-stimulated phosphorylation; for hIRA Phosph IC50 Run 1: BHI at its EC50, run 1; for hIRA Phosph IC50 Run 2: BHI at its EC50, run 2; for hIRA Phosph IC50 Run 3: BHI at its EC50, run 3; for IC50: read-out: hIRA Phosph IC50 Mean
T2 construct: expressed in transfected cells; host or cells: HEK293, stably transfected
T2 sequence (P06213 28-1370 isoform P06213-2 limits assumed): as the sequence (P06213 28-1370 isoform P06213-2 limits assumed) above
T2 sequence (P06213 763-1382 partner limits assumed): as the sequence (P06213 763-1382 partner limits assumed) above
Protocol: Phosphorylation was quantified using an ELISA technique. Ninety-six well, flat-bottom microplates (Greiner Bio-One) were pre-coated with 2 µg mL^−1 anti-C9 monoclonal antibody (Rho 1D4; University of British Columbia)[27] in 20 mM sodium carbonate, pH 9.6, at 4 °C for overnight prior to the assay. On the assay day, plates were washed 3× with 0.1% Tween in 50 mM Tris Buffer Saline, pH 7.5 (TBST), and then blocked for greater than 1 h at room temperature (RT) with 1% BSA (Sigma) in TBST.
Stably transfected HEK293 cells over-expressing human holoIR-A containing a C-terminal C9 epitope tag ([…]), were plated at 6 × 10^4 cells per well serum-starved using 0.1% BSA in DMEM (Gibco) for overnight at standard tissue culture condition. […] After a 15-min incubation in lysis buffer at 4 °C, the lysate was transferred to anti-C9 antibody coated capture plate (Rho 1D4; University of British Columbia)[27]. […] After a 1 h incubation at room temperature, the secondary antibody was removed by washing 3× with TBST. Signal detection occurred with the addition of TMB, an HRP substrate (Pierce). After 5–10 min, the reaction was stopped by adding an equal volume of 2 M H2SO4, and the absorbance readings at 450 nm (A450) were recorded using a Envision plate reader (PerkinElmer). Samples were tested in three independent assay runs on three different days.
Percent specific response (y-axis) was plotted versus the log concentration of compound (x-axis) using Prism Version 9.3.1 (GraphPad Software). Individual measurements are provided as Source Data.

[2] = mean of 3 runs, read-out: hIRA Binding Ki Mean
[3] = run 1, read-out: hIRA Binding Ki Run 1
[4] = run 2, read-out: hIRA Binding Ki Run 2
[5] = run 3, read-out: hIRA Binding Ki Run 3

Ki (human IR-A (holoIR-A); [2]) [nM] | Ki (human IR-A (holoIR-A); [3]) [nM] | Ki (human IR-A (holoIR-A); [4]) [nM] | Ki (human IR-A (holoIR-A); [5]) [nM] | reduction in ki for hIR-A on substitution (human IR-A (holoIR-A)) | hIRA Phosph IC50 Run 1 [1] [nM] | hIRA Phosph IC50 Run 2 [1] [nM] | hIRA Phosph IC50 Run 3 [1] [nM] | IC50 [1] [nM] | Compound
17.5 | 19.79 | 18.2 | 14.7 | lower than 5 fold | 147 | 122 | 132 | 134 | CC[C@H](C)[C@H](NC(=O)[C@H](CCC(N)=O)NC(=O)[C@H](C)NC(=O)[C@H](Cc1c[nH]c2ccccc12)NC(=O)[C@H](CCC(=O)O)NC(=O)[C@H](CCC(=O)O)NC(=O)[C@H](CCC(=O)O)NC(=O)[C@H](CC(C)C)NC(=O)[C@H](CO)NC(C)=O)C(=O)N[C@@H](CCC(=O)O)C(=O)N[C@H]1CSSC[C@@H](C(=O)N2CCC[C@H]2C(=O)N2CCC[C@H]2C(=O)N[C@@H](CO)C(=O)N[C@@H](C)C(=O)N[C@@H](CO)C(N)=O)NC(=O)[C@H](CCCNC(=N)N)NC(=O)CNC(=O)[C@H](Cc2ccc(O)cc2)NC(=O)[C@H](C(C)C)NC(=O)[C@H](CCC(=O)O)NC1=O [Peptide E21A] (Ac-SLEEEWAQIECEVYGRCPPSAS-NH2; disulfide 11-17)
8.9 | 8.75 | 8.05 | 9.91 |  | 28 | 27 | 29 | 28.1 | CC[C@H](C)[C@H](NC(=O)[C@H](CCC(N)=O)NC(=O)[C@H](C)NC(=O)[C@H](Cc1c[nH]c2ccccc12)NC(=O)[C@H](CCC(=O)O)NC(=O)[C@H](CCC(=O)O)NC(=O)[C@H](CCC(=O)O)NC(=O)[C@H](CC(C)C)NC(=O)[C@H](CO)NC(C)=O)C(=O)N[C@@H](CCC(=O)O)C(=O)N[C@H]1CSSC[C@@H](C(=O)N2CCC[C@H]2C(=O)N2CCC[C@H]2C(=O)N[C@@H](CO)C(=O)N[C@@H](CCCNC(=N)N)C(=O)N[C@@H](CO)C(N)=O)NC(=O)[C@H](CCCNC(=N)N)NC(=O)CNC(=O)[C@H](Cc2ccc(O)cc2)NC(=O)[C@H](C(C)C)NC(=O)[C@H](CCC(=O)O)NC1=O [Peptide E21R] (Ac-SLEEEWAQIECEVYGRCPPSRS-NH2; disulfide 11-17)
99.3 | 97.0 | 117 | 83.7 | 10 fold | 601 | 587 | 624 | 604 | CC[C@H](C)[C@H](NC(=O)[C@H](CCC(N)=O)NC(=O)[C@H](C)NC(=O)[C@H](Cc1c[nH]c2ccccc12)NC(=O)[C@H](CCC(=O)O)NC(=O)[C@H](CCC(=O)O)NC(=O)[C@H](CCC(=O)O)NC(=O)[C@H](CC(C)C)NC(=O)[C@H](CO)NC(C)=O)C(=O)N[C@@H](CCC(=O)O)C(=O)N[C@H]1CSSC[C@@H](C(=O)N2CCC[C@H]2C(=O)N2CCC[C@H]2C(=O)N[C@@H](CO)C(=O)N[C@@H](CCC(=O)O)C(=O)N[C@@H](CO)C(N)=O)NC(=O)[C@H](CCCNC(=N)N)NC(=O)[C@H](C)NC(=O)[C@H](Cc2ccc(O)cc2)NC(=O)[C@H](C(C)C)NC(=O)[C@H](CCC(=O)O)NC1=O [Peptide G15A] (Ac-SLEEEWAQIECEVYARCPPSES-NH2; disulfide 11-17)

Second part, the compound before the results:

Compound | Ki (human IR-A (holoIR-A); [2]) [nM] | Ki (human IR-A (holoIR-A); [3]) [nM] | Ki (human IR-A (holoIR-A); [4]) [nM] | Ki (human IR-A (holoIR-A); [5]) [nM] | reduction in ki for hIR-A on substitution (human IR-A (holoIR-A)) | hIRA Phosph IC50 Run 1 [1] [nM] | hIRA Phosph IC50 Run 2 [1] [nM] | hIRA Phosph IC50 Run 3 [1] [nM] | IC50 [1] [nM]
CC[C@H](C)[C@H](NC(=O)[C@H](CCC(N)=O)NC(=O)[C@H](C)NC(=O)[C@H](Cc1c[nH]c2ccccc12)NC(=O)[C@H](CCC(=O)O)NC(=O)[C@H](CCC(=O)O)NC(=O)[C@H](CCC(=O)O)NC(=O)[C@H](CC(C)C)NC(=O)[C@H](CO)NC(C)=O)C(=O)N[C@@H](C)C(=O)N[C@H]1CSSC[C@@H](C(=O)N2CCC[C@H]2C(=O)N2CCC[C@H]2C(=O)N[C@@H](CO)C(=O)N[C@@H](CCC(=O)O)C(=O)N[C@@H](CO)C(N)=O)NC(=O)[C@H](CCCNC(=N)N)NC(=O)CNC(=O)[C@H](Cc2ccc(O)cc2)NC(=O)[C@H](C(C)C)NC(=O)[C@H](CCC(=O)O)NC1=O [Peptide E10A] (Ac-SLEEEWAQIACEVYGRCPPSES-NH2; disulfide 11-17) | 19 | 19.4 | 16.4 | 21.2 | lower than 5 fold | 272 | 217 | 236 | 242
CC[C@H](C)[C@H](NC(=O)[C@H](CCC(N)=O)NC(=O)[C@H](C)NC(=O)[C@H](Cc1c[nH]c2ccccc12)NC(=O)[C@H](CCC(=O)O)NC(=O)[C@H](CCC(=O)O)NC(=O)[C@H](CCC(=O)O)NC(=O)[C@H](CC(C)C)NC(=O)[C@H](CO)NC(C)=O)C(=O)N[C@@H](CCCNC(=N)N)C(=O)N[C@H]1CSSC[C@@H](C(=O)N2CCC[C@H]2C(=O)N2CCC[C@H]2C(=O)N[C@@H](CO)C(=O)N[C@@H](CCC(=O)O)C(=O)N[C@@H](CO)C(N)=O)NC(=O)[C@H](CCCNC(=N)N)NC(=O)CNC(=O)[C@H](Cc2ccc(O)cc2)NC(=O)[C@H](C(C)C)NC(=O)[C@H](CCC(=O)O)NC1=O [Peptide E10R] (Ac-SLEEEWAQIRCEVYGRCPPSES-NH2; disulfide 11-17) | 3.7 | 3.77 | 3.11 | 4.23 |  | 27 | 27 | 24 | 26.2
CC[C@H](C)[C@H](NC(=O)[C@H](CCC(N)=O)NC(=O)[C@H](C)NC(=O)[C@H](Cc1c[nH]c2ccccc12)NC(=O)[C@H](CCC(=O)O)NC(=O)[C@H](CCC(=O)O)NC(=O)[C@H](CCC(=O)O)NC(=O)[C@H](CC(C)C)NC(=O)[C@H](CO)NC(C)=O)C(=O)N[C@@H](CCC(=O)O)C(=O)N[C@H]1CSSC[C@@H](C(=O)N2CCC[C@H]2C(=O)N2CCC[C@H]2C(=O)N[C@@H](CO)C(=O)N[C@@H](CCC(=O)O)C(=O)N[C@@H](CO)C(N)=O)NC(=O)[C@H](CCCNC(=N)N)NC(=O)CNC(=O)[C@H](Cc2ccc(O)cc2)NC(=O)[C@H](C(C)C)NC(=O)[C@H](C)NC1=O [Peptide E12A] (Ac-SLEEEWAQIECAVYGRCPPSES-NH2; disulfide 11-17) | 50.3 | 44.9 | 52.2 | 53.9 |  | 343 | 247 | 295 | 295
CC[C@H](C)[C@H](NC(=O)[C@H](CCC(N)=O)NC(=O)[C@H](C)NC(=O)[C@H](Cc1c[nH]c2ccccc12)NC(=O)[C@H](CCC(=O)O)NC(=O)[C@H](CCC(=O)O)NC(=O)[C@H](CCC(=O)O)NC(=O)[C@H](CC(C)C)NC(=O)[C@H](CO)NC(C)=O)C(=O)N[C@@H](CCC(=O)O)C(=O)N[C@H]1CSSC[C@@H](C(=O)N2CCC[C@H]2C(=O)N2CCC[C@H]2C(=O)N[C@@H](CO)C(=O)N[C@@H](CCC(=O)O)C(=O)N[C@@H](CO)C(N)=O)NC(=O)[C@H](CCCNC(=N)N)NC(=O)CNC(=O)[C@H](Cc2ccc(O)cc2)NC(=O)[C@H](C(C)C)NC(=O)[C@H](CCCNC(=N)N)NC1=O [Peptide E12R] (Ac-SLEEEWAQIECRVYGRCPPSES-NH2; disulfide 11-17) | 132 | 117 | 126 | 152 |  | 2869 | 2922 | 2670 | 2820
